In ChEMBL document CHEMBL4342417, “Design, synthesis and evaluation of novel phenothiazine derivatives as inhibitors of breast cancer stem cells” (Eur J Med Chem, 2019):

Columns and labels:
SUM-159-PT [1] = assay: Antiproliferative activity against human SUM159 cells assessed as reduction in cell viability incubated for 2 days by MTT assay; assay type: functional, cell-based; details: 48 h
MCF7 [2] = assay: Antiproliferative activity against human MCF7 cells assessed as reduction in cell viability incubated for 2 days by MTT assay; assay type: functional, cell-based; details: MCF7, 48 h
MDA-MB-231 [3] = assay: Antiproliferative activity against human MDA-MB-231 cells assessed as reduction in cell viability incubated for 2 days by MTT assay; assay type: functional, cell-based; details: MDA-MB-231, 48 h
SK-BR-3 [4] = assay: Antiproliferative activity against human SKBR3 cells assessed as reduction in cell viability incubated for 2 days by MTT assay; assay type: functional, cell-based; details: SK-BR-3, 48 h
SK-BR-3 [5] = assay: Potency index, ratio of IC50 of TFP to IC50 of compound for antiproliferative activity against human SKBR3 cells assessed as reduction in cell viability incubated for 2 days by MTT assay; assay type: functional
SUM-159-PT [6] = assay: Potency index, ratio of IC50 of TFP to IC50 of compound for antiproliferative activity against human SUM159 cells assessed as reduction in cell viability incubated for 2 days by MTT assay; assay type: functional
MDA-MB-231 [7] = assay: Potency index, ratio of IC50 of TFP to IC50 of compound for antiproliferative activity against human MDA-MB-231 cells assessed as reduction in cell viability incubated for 2 days by MTT assay; assay type: functional
MCF7 [8] = assay: Potency index, ratio of IC50 of TFP to IC50 of compound for antiproliferative activity against human MCF7 cells assessed as reduction in cell viability incubated for 2 days by MTT assay; assay type: functional
KG-1a = assay: Antiproliferative activity against human KG1a cells assessed as reduction in cell viability incubated for 2 days by MTT assay; assay type: functional, cell-based; details: 48 h
[9] = Toxicity in zebra fish assessed as survival rate at 250 uM observed for 24 hrs; parameters: species or system Danio rerio; details: zebrafish

Structure (SMILES): CSc1ccc2c(c1)N(CCCN1CCN(C(=O)CCC(=O)OCC#CCOc3no[n+]([O-])c3S(=O)(=O)c3ccccc3)CC1)c1ccccc1S2
- IC50 (SUM-159-PT [1]): 3.97 µM
- IC50 (MCF7 [2]): 4.32 µM
- IC50 (MDA-MB-231 [3]): 20.2 µM
- IC50 (SK-BR-3 [4]): 2.63 µM
- Ratio IC50 (SK-BR-3 [5]): 6

Structure (SMILES): O=C1CC(c2ccccc2)Oc2cc(O)c(CN3CCN(CCCN4c5ccccc5Sc5ccccc54)CC3)c(O)c21 (stereo not given)
- IC50 (SUM-159-PT [1]): > 50 µM
- IC50 (MCF7 [2]): > 50 µM
- IC50 (MDA-MB-231 [3]): > 50 µM
- IC50 (SK-BR-3 [4]): > 50 µM

Structure (SMILES): O=C1CC(c2ccc(O)cc2)Oc2cc(O)c(CN3CCN(CCCN4c5ccccc5Sc5ccc(C(F)(F)F)cc54)CC3)c(O)c21 (stereo not given)
- IC50 (SUM-159-PT [1]): 25 µM
- IC50 (MCF7 [2]): > 50 µM
- IC50 (MDA-MB-231 [3]): > 50 µM
- IC50 (SK-BR-3 [4]): > 50 µM

Structure (SMILES): CSc1ccc2c(c1)N(CCCN(CCO)CCO)c1ccccc1S2
- IC50 (SUM-159-PT [1]): 24.6 µM
- IC50 (MCF7 [2]): 36.7 µM
- IC50 (MDA-MB-231 [3]): 10.3 µM
- IC50 (SK-BR-3 [4]): 27.2 µM

Structure (SMILES): O=C(CCC(=O)N1CCN(CCCN2c3ccccc3Sc3ccccc32)CC1)NCCOc1no[n+]([O-])c1S(=O)(=O)c1ccccc1
- IC50 (SUM-159-PT [1]): 4.17 µM
- IC50 (MCF7 [2]): 5.58 µM
- IC50 (MDA-MB-231 [3]): 1.43 µM
- Ratio IC50 (SUM-159-PT [6]): 4
- Ratio IC50 (MDA-MB-231 [7]): 4 - 15
- IC50 (SK-BR-3 [4]): 4.01 µM
- Ratio IC50 (SK-BR-3 [5]): 4 - 9

Structure (SMILES): O=C(CCC(=O)N1CCN(CCCN2c3ccccc3Sc3ccc(C(F)(F)F)cc32)CC1)OCC#CCOc1no[n+]([O-])c1S(=O)(=O)c1ccccc1
- IC50 (SUM-159-PT [1]): 5.44 µM
- IC50 (MCF7 [2]): 7.26 µM
- IC50 (MDA-MB-231 [3]): 5.89 µM
- IC50 (SK-BR-3 [4]): 18 µM

Structure (SMILES): OCCN(CCO)CCCN1c2ccccc2Sc2ccccc21
- IC50 (SUM-159-PT [1]): > 50 µM
- IC50 (MCF7 [2]): > 50 µM
- IC50 (MDA-MB-231 [3]): > 50 µM
- IC50 (SK-BR-3 [4]): > 50 µM

Structure (SMILES): O=C(CCC(=O)N1CCN(CCCN2c3ccccc3Sc3ccccc32)CC1)OCC#CCOc1no[n+]([O-])c1S(=O)(=O)c1ccccc1
- IC50 (SUM-159-PT [1]): 2.85 µM
- IC50 (MCF7 [2]): 1.55 µM
- IC50 (MDA-MB-231 [3]): 6.4 µM
- IC50 (SK-BR-3 [4]): 8.89 µM
- Ratio IC50 (MCF7 [8]): 7

Structure (SMILES): OCCN(CCO)CCCN1c2ccccc2Sc2ccc(C(F)(F)F)cc21
- IC50 (SUM-159-PT [1]): 46 µM
- IC50 (MCF7 [2]): 33.6 µM
- IC50 (MDA-MB-231 [3]): 6.09 µM
- IC50 (SK-BR-3 [4]): 43.2 µM

Structure (SMILES): O=C1CC(c2ccccc2)Oc2cc(O)c(CN3CCN(CCCN4c5ccccc5Sc5ccc(C(F)(F)F)cc54)CC3)c(O)c21 (stereo not given)
- IC50 (SUM-159-PT [1]): > 50 µM
- IC50 (MCF7 [2]): > 50 µM
- IC50 (MDA-MB-231 [3]): > 50 µM
- IC50 (SK-BR-3 [4]): > 50 µM

Structure (SMILES): CSc1ccc2c(c1)N(CCCN1CCN(Cc3c(O)cc4c(c3O)C(=O)CC(c3ccc(O)cc3)O4)CC1)c1ccccc1S2 (stereo not given)
- IC50 (SUM-159-PT [1]): 32.2 µM
- IC50 (MCF7 [2]): > 50 µM
- IC50 (MDA-MB-231 [3]): > 50 µM
- IC50 (SK-BR-3 [4]): > 50 µM

Structure (SMILES): CSc1ccc2c(c1)N(CCCN1CCN(C(=O)CCC(=O)OCCOCCOc3no[n+]([O-])c3S(=O)(=O)c3ccccc3)CC1)c1ccccc1S2
- IC50 (SUM-159-PT [1]): 4.31 µM
- IC50 (MCF7 [2]): 11.9 µM
- IC50 (MDA-MB-231 [3]): 3.06 µM
- Ratio IC50 (SUM-159-PT [6]): 4 - 9
- Ratio IC50 (MDA-MB-231 [7]): 7
- IC50 (SK-BR-3 [4]): 3.91 µM
- Ratio IC50 (SK-BR-3 [5]): 4

Structure (SMILES): O=C(CCC(=O)N1CCN(CCCN2c3ccccc3Sc3ccc(C(F)(F)F)cc32)CC1)OCCOCCOc1no[n+]([O-])c1S(=O)(=O)c1ccccc1
- IC50 (SUM-159-PT [1]): 3.36 µM
- IC50 (MCF7 [2]): 3.31 µM
- IC50 (MDA-MB-231 [3]): 3.12 µM
- Ratio IC50 (SUM-159-PT [6]): 4 - 9
- Ratio IC50 (MDA-MB-231 [7]): 7
- IC50 (SK-BR-3 [4]): 10.1 µM
- Ratio IC50 (MCF7 [8]): 3

Structure (SMILES): O=C(CCC(=O)N1CCN(CCCN2c3ccccc3Sc3ccc(C(F)(F)F)cc32)CC1)OCCOc1no[n+]([O-])c1S(=O)(=O)c1ccccc1
- IC50 (SUM-159-PT [1]): 2.2 µM
- IC50 (MCF7 [2]): 1.36 µM
- IC50 (KG-1a): 2.2 µM
- IC50 (MDA-MB-231 [3]): 7.09 µM
- IC50 (SK-BR-3 [4]): 1.51 µM
- survival at 24 h, 250 µM [9]: 25.8%

Structure (SMILES): O=C(CCC(=O)N1CCN(CCCN2c3ccccc3Sc3ccc(C(F)(F)F)cc32)CC1)OCCCCOc1no[n+]([O-])c1S(=O)(=O)c1ccccc1
- IC50 (SUM-159-PT [1]): 2.93 µM
- IC50 (MCF7 [2]): 1.35 µM
- IC50 (KG-1a): 2.93 µM
- IC50 (MDA-MB-231 [3]): 10.2 µM
- Ratio IC50 (SUM-159-PT [6]): 6 - 15
- IC50 (SK-BR-3 [4]): 64.6 µM
- survival at 24 h, 250 µM [9]: 19.4%
- Ratio IC50 (MCF7 [8]): 4 - 13

Structure (SMILES): COCCN(CCCN1c2ccccc2Sc2ccc(SC)cc21)CCOC
- IC50 (SUM-159-PT [1]): 18.3 µM
- IC50 (MCF7 [2]): 6.09 µM
- IC50 (MDA-MB-231 [3]): 40.5 µM
- IC50 (SK-BR-3 [4]): 31.9 µM

Structure (SMILES): CSc1ccc2c(c1)N(CCCN1CCN(C(=O)CCC(=O)OCCCCOc3no[n+]([O-])c3S(=O)(=O)c3ccccc3)CC1)c1ccccc1S2
- IC50 (SUM-159-PT [1]): 1.14 µM
- IC50 (MCF7 [2]): 0.84 µM
- IC50 (KG-1a): 1.14 µM
- IC50 (MDA-MB-231 [3]): 3.62 µM
- Ratio IC50 (SUM-159-PT [6]): 6 - 15
- Ratio IC50 (MDA-MB-231 [7]): 6
- IC50 (SK-BR-3 [4]): 9.72 µM
- survival at 24 h, 250 µM [9]: 25.8%
- Ratio IC50 (MCF7 [8]): 4 - 13

Structure (SMILES): O=C(CCC(=O)N1CCN(CCCN2c3ccccc3Sc3ccccc32)CC1)OCCOCCOc1no[n+]([O-])c1S(=O)(=O)c1ccccc1
- IC50 (SUM-159-PT [1]): 1.95 µM
- IC50 (MCF7 [2]): 12.2 µM
- IC50 (MDA-MB-231 [3]): 14.8 µM
- Ratio IC50 (SUM-159-PT [6]): 4 - 9
- IC50 (SK-BR-3 [4]): 3.13 µM
- Ratio IC50 (SK-BR-3 [5]): 4

Structure (SMILES): CSc1ccc2c(c1)N(CCC1CCCCN1C)c1ccccc1S2 (stereo not given) [THIORIDAZINE]
- IC50 (SUM-159-PT [1]): 14.5 µM
- IC50 (KG-1a): 6.01 µM
- IC50 (MDA-MB-231 [3]): 14.2 µM
- IC50 (SK-BR-3 [4]): 18.2 µM

Structure (SMILES): O=C(CCC(=O)N1CCN(CCCN2c3ccccc3Sc3ccc(C(F)(F)F)cc32)CC1)NCCOc1no[n+]([O-])c1S(=O)(=O)c1ccccc1
- IC50 (SUM-159-PT [1]): 1.98 µM
- IC50 (MCF7 [2]): 6.96 µM
- IC50 (MDA-MB-231 [3]): 6.04 µM
- Ratio IC50 (SUM-159-PT [6]): 9
- Ratio IC50 (MDA-MB-231 [7]): 4 - 15
- IC50 (SK-BR-3 [4]): 1.77 µM
- Ratio IC50 (SK-BR-3 [5]): 4 - 9

Structure (SMILES): O=C1CC(c2ccc(O)cc2)Oc2cc(O)c(CN3CCN(CCCN4c5ccccc5Sc5ccccc54)CC3)c(O)c21 (stereo not given)
- IC50 (SUM-159-PT [1]): > 50 µM
- IC50 (MCF7 [2]): > 50 µM
- IC50 (MDA-MB-231 [3]): > 50 µM
- IC50 (SK-BR-3 [4]): > 50 µM

Structure (SMILES): CSc1ccc2c(c1)N(CCCN1CCN(Cc3c(O)cc4c(c3O)C(=O)CC(c3ccccc3)O4)CC1)c1ccccc1S2 (stereo not given)
- IC50 (SUM-159-PT [1]): > 50 µM
- IC50 (MCF7 [2]): > 50 µM
- IC50 (MDA-MB-231 [3]): > 50 µM
- IC50 (SK-BR-3 [4]): > 50 µM

Structure (SMILES): CSc1ccc2c(c1)N(CCCN1CCN(C(=O)CCC(=O)OCCOc3no[n+]([O-])c3S(=O)(=O)c3ccccc3)CC1)c1ccccc1S2
- IC50 (SUM-159-PT [1]): 1.2 µM
- IC50 (MCF7 [2]): 1.85 µM
- IC50 (KG-1a): 1.2 µM
- IC50 (MDA-MB-231 [3]): 3.82 µM
- IC50 (SK-BR-3 [4]): 3.86 µM
- survival at 24 h, 250 µM [9]: 32.3%

Structure (SMILES): COCCN(CCCN1c2ccccc2Sc2ccc(C(F)(F)F)cc21)CCOC
- IC50 (SUM-159-PT [1]): 29.9 µM
- IC50 (MCF7 [2]): > 50 µM
- IC50 (MDA-MB-231 [3]): > 50 µM
- IC50 (SK-BR-3 [4]): > 50 µM

Structure (SMILES): COCCN(CCCN1c2ccccc2Sc2ccccc21)CCOC
- IC50 (SUM-159-PT [1]): 35.3 µM
- IC50 (MCF7 [2]): 29.8 µM
- IC50 (MDA-MB-231 [3]): 45.1 µM
- IC50 (SK-BR-3 [4]): > 50 µM

Structure (SMILES): CSc1ccc2c(c1)N(CCCN1CCN(C(=O)CCC(=O)NCCOc3no[n+]([O-])c3S(=O)(=O)c3ccccc3)CC1)c1ccccc1S2
- IC50 (SUM-159-PT [1]): 9.34 µM
- IC50 (MCF7 [2]): 12.2 µM
- IC50 (MDA-MB-231 [3]): 3.41 µM
- Ratio IC50 (MDA-MB-231 [7]): 4 - 15
- IC50 (SK-BR-3 [4]): 2.68 µM
- Ratio IC50 (SK-BR-3 [5]): 4 - 9
